# Results from publication PMC6685951, “Migration of Bacteriocins Across Gastrointestinal Epithelial and Vascular Endothelial Cells, as Determined Using In Vitro Simulations” (Scientific Reports, 2019).
# Bridges are numbered along the chain shown (N, C = ends). Where no end group is shown, it is not given here.
# Key:
# [1] = in vivo, po; cited from earlier work
# [2] = test system: L. monocytogenes EGDe; format: cell-based, Listeria monocytogenes; settings: EGDe, 18 h
# Experimental: The BCA assay was used according to the manufactures instructions to determine the concentration of the peptides. The MIC of the peptides was determined using a microtiter plate. Briefly, L. monocytogenes EGDe was inoculated into Listeria enrichment broth (LEB) and incubated overnight at 37 °C. The culture was inoculated into fresh LEB and incubated until an OD600 of 0.1 was reached. A series of peptide concentrations was prepared and 50 µL of each added per well, followed by the addition of 150 µL culture. The controls were ddH2O containing 0.1% (v/v) TFA with 150 µL culture or media. Microtiter plates were incubated at 37 °C and OD600 readings were taken at T0, T5 and T18 (hours). The MIC was determined as the lowest peptide concentration required to inhibit the growth of L. monocytogenes EGDe after 18 h.
# [3] = test system: L. monocytogenes EGDe; assay: Antimicrobial activity of NHS-fluorescein labelled versus unlabelled peptides (zone sizes); format: cell-based, Listeria monocytogenes; settings: 50 µM, 20 µL spotted on LEB agar seeded with L. monocytogenes EGDe, overnight 37 °C
# Experimental: HPLC purified stock solutions of nisin A, plantaricin 423 and bacST4SA were prepared by dissolving the peptides in sterile ultrapure water. Immediately before conjugating NHS-fluorescein to the peptides, a stock solution of NHS-fluorescein was prepared by dissolving 1 mg of reagent in 100 µL DMF. The amount of NHS-fluorescein to be added to each peptide was calculated using the Eqs (2) and (3):2 mLpeptide×mgpeptide/mLpeptide×mmolpeptide/mgpeptide×15mmolNHS/mmolpeptide=mmolNHS 3 mmolNHS×473.4(MWofNHS)/mmolNHS×100µLDMF/1mg=µLNHS
# The calculated concentration of NHS-fluorescein was added to the peptides and incubated on ice for 2 h. Non-reacted NHS-fluorescein was removed by Sep-Pak C18 column chromatography. Plantaricin 423 and bacST4SA were eluted with 60% acetonitrile containing 0.1% TFA and nisin A with 40% acetonitrile containing 0.1% TFA. Peptides were freeze dried and resuspended in sterile ultrapure water. Concentrations of the labelled peptides were determined with the BCA assay and diluted to 50 µM. Labelled peptides were filtered through a 0.45 µm HVLP membrane and spotted (20 µL) onto LEB agar seeded with 1% L. monocytogenes EGDe (OD600 0.1). Plates were incubated overnight at 37 °C and the fluorescent peptides visualised under a UVP 3UV Ultraviolet Lamp. Inhibition zones were measured using ImageJ software and compared to those of non-labelled peptides.
compound,measurement,setting,value
CC1(C)S[C@@H]2[C@H](NC(=O)[C@H](N)c3ccc(O)cc3)C(=O)N2[C@H]1C(=O)O [Amoxicillin],bioavailability,[1],74-92%
O=C(N[C@H](CO)[C@H](O)c1ccc([N+](=O)[O-])cc1)C(Cl)Cl [Chloramphenicol],time to peak blood levels,[1],≤ 2 h
CC1(C)S[C@@H]2[C@H](NC(=O)COc3ccccc3)C(=O)N2[C@H]1C(=O)O [penicillin V],bioavailability,[1],60-70%
KYYGNGVSCNKKGCSVDWGKAIGIIGNNSAANLATGGAAGWKS (disulfide 9-14) [bacST4SA],MIC,[2],10 µM
same,decrease in activity of labelled versus unlabelled peptide (antimicrobial zone sizes),[3],21%
